We go through eight compounds from ChEMBL document CHEMBL1201862, “PubChem BioAssay data set” (2004).

Calls of active or inactive are those of the source.

Assay [1] addresses T1, Hexokinase HKDC1 (Homo sapiens, UniProt Q2TB90).
T1 sequence (Q2TB90 whole entry): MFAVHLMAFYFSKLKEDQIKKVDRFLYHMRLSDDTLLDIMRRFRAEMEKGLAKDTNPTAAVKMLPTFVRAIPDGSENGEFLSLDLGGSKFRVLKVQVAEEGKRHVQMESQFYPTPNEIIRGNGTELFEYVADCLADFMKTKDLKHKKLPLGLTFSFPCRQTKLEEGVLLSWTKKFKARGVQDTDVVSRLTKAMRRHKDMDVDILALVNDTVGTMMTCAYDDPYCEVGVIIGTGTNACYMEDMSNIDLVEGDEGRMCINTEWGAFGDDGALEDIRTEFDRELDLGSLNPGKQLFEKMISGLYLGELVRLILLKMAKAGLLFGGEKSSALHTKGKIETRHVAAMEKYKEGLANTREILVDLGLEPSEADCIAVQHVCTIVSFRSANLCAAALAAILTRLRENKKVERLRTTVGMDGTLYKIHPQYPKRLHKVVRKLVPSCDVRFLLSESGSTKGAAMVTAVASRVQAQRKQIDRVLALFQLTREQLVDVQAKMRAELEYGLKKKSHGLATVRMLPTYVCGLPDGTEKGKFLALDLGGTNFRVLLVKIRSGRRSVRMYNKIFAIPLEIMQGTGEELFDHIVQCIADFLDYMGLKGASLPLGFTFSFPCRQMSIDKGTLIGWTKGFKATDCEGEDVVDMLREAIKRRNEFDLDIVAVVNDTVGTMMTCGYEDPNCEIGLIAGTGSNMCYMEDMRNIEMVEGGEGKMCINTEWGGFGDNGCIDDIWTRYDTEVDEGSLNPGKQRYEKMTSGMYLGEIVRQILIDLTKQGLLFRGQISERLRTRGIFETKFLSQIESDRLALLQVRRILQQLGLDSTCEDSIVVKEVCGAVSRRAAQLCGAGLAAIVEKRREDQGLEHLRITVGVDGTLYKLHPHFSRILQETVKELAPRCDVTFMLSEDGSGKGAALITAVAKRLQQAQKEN
Put plainly: inhibition of HKDC1 glucose phosphorylation – biochemical, W721R variant, dose response (AID 504729). Type of assay: functional.

Assay [2] addresses Genome polyprotein (dengue virus type 2, UniProt P29990). Nature of the assay: flavivirus cap methylation enzyme inhibition – biochemical, confirmation dose response, primary screen (AID 588689). The format is functional.
Assay [3] deals with Tyrosyl-DNA phosphodiesterase 2 (Homo sapiens, UniProt O95551). Put plainly: potency against TDP2 phosphodiesterase activity – biochemical, epi absorbance, IC50, dose response (AID 743297).
Tyrosyl-DNA phosphodiesterase 2, sequence (O95551 whole entry): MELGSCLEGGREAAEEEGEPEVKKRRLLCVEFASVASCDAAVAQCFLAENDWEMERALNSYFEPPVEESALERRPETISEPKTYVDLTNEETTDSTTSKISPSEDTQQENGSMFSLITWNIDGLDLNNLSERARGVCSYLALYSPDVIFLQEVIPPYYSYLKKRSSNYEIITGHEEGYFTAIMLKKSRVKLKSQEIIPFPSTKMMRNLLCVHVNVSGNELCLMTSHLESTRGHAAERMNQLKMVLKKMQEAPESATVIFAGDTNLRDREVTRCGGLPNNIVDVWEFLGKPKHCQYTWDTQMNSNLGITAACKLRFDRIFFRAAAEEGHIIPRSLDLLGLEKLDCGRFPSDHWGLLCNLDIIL
A short description of assay [4]: cells. The following applies: A549.
Assay [5] concerns Vero. Put plainly: cells. The format is functional. The conditions noted are these: Chlorocebus sabaeus.
Assay [6] relates to BHK-21. Put plainly: viability loss in BHK-21 cells – cell-based, plate reader, cherry-pick samples, cytotoxicity control, dose response (AID 687030). Type of assay: functional. The conditions noted are these: Mesocricetus auratus.
In assay [7] the test system is Vero. Nature of the assay: viability loss in Vero cells – cell-based, plate reader, cherry-pick samples, cytotoxicity control, dose response (AID 687020). The format is functional. The following applies: Chlorocebus sabaeus.
For assay [8], the system named is A549. Put plainly: viability loss in A549 cells – cell-based, plate reader, cherry-pick samples, cytotoxicity control, dose response (AID 687028). The format is functional. The following applies: Homo sapiens.
The target in assay [9] is T2, CAAX prenyl protease 2 (Saccharomyces cerevisiae S288c, UniProt Q03530).
T2 sequence (Q03530 whole entry): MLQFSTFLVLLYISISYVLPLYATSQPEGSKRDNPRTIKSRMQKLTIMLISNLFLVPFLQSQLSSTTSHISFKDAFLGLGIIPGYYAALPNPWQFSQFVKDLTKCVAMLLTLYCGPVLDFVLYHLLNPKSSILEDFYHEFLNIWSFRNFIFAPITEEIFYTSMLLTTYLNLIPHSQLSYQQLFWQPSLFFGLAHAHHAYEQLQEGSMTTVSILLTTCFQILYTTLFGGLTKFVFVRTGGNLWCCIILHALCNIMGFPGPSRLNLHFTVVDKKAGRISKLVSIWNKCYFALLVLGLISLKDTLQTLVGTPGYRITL
The format is biochemical.

Assay [10] concerns the target Endoplasmic reticulum aminopeptidase 1 (Homo sapiens, UniProt Q9NZ08). Nature of the assay: inhibition of human ERAP1 enzyme activity – biochemical, cherry-pick, set 2, plate reader, dose response (AID 743314).
Assay [11] can be described thus: viability loss in HepG2 hepatoma cells – cell-based, ATP luminescence, cherry-pick, activator set 2, cytotoxicity control, dose response (AID 1053143). Type of assay: functional.
Assay [12] deals with T3, Polyadenylate-binding protein 1 (Homo sapiens, UniProt P11940). Put plainly: MLLE binding blockers, Cy5 peptide tracer – biochemical, fluorescence polarization, Cy5-PAM2 peptide, secondary, miRNA deadenylation inhibitor project, dose response (AID 602260). The following applies: read-out: IC50_Mean. The format is functional.
T3 sequence (P11940 whole entry, the tested form may be a part): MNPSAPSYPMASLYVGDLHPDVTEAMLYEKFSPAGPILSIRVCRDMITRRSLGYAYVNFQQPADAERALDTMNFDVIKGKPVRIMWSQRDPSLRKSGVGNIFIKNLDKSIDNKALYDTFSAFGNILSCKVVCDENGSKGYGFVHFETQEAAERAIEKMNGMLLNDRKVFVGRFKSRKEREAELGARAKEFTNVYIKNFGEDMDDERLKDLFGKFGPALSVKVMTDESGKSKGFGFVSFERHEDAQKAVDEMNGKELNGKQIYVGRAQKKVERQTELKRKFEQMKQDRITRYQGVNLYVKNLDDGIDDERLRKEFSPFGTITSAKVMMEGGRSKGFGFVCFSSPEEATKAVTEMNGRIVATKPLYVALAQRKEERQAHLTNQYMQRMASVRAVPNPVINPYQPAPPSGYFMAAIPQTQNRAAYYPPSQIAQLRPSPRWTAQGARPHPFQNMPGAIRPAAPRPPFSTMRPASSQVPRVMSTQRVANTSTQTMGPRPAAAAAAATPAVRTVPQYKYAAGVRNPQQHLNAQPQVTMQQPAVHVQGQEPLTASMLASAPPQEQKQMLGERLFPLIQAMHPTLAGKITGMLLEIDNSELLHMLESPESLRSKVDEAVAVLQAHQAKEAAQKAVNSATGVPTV
Assay [13] deals with T3, Polyadenylate-binding protein 1. Nature of the assay: MLLE domain peptide-binding blockers, IC50 – biochemical, fluorescence polarization, FITC-PAM2 peptide, dose response (AID 602259). Type of assay: functional. The conditions noted are these: read-out: IC50_Mean.
In assay [14] the target is Botulinum neurotoxin type F (Clostridium botulinum, UniProt P30996). Nature of the assay: High-throughput multiplex microsphere dose response for inhibitors of toxin protease, specifically Botulinum neurotoxin light chain F protease, compounds from Cherry Pick 02. The format is functional. The following applies: read-out: EC50_MICROM.
Botulinum neurotoxin type F, sequence (P30996 1-436 limits assumed): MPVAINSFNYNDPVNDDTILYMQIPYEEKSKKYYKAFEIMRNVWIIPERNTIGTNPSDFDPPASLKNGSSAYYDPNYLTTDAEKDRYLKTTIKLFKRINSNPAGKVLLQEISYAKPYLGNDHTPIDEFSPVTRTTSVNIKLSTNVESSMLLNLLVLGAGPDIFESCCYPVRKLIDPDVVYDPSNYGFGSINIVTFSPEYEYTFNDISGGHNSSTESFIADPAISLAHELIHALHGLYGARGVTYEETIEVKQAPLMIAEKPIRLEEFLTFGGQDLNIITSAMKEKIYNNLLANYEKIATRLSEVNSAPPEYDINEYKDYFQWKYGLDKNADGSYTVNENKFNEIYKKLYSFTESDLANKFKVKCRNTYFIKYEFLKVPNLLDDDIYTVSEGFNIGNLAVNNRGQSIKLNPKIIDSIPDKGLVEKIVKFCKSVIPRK
For assay [15], the target named is T4, Protein skinhead-1 (Caenorhabditis elegans, UniProt P34707).
T4 sequence (P34707 whole entry): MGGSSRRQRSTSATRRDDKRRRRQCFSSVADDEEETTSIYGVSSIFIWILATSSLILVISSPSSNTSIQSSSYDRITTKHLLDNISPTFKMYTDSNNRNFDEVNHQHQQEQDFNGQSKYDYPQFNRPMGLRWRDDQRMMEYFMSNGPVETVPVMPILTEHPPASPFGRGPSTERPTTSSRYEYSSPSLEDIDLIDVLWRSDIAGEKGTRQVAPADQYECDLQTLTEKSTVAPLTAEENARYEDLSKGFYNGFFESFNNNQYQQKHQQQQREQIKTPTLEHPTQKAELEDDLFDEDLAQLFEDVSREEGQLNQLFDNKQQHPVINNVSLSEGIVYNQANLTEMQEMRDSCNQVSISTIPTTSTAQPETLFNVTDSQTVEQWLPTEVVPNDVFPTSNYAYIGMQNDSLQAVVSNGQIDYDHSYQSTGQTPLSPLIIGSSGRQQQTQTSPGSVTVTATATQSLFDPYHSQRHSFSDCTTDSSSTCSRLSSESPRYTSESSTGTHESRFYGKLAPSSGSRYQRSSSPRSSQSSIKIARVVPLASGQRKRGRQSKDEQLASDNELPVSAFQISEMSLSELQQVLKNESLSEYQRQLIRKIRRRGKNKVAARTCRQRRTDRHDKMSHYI
The format is functional.

Assay [16] can be described thus: cytotoxicity in HEK293 background cells – cell-based, dry powder, set 2, counter-screen for EBV LMP1 inhibitor project, dose response (AID 624374). Type of assay: functional.
A short description of assay [17]: viability loss in LCL cells – cell-based, plate reader, dry powder, set 2, cytotoxicity control, dose response (AID 624367). The format is functional.
A short description of assay [18]: Dd2 parasite growth inhibition in erythrocytes – SYBR Green, dry powder samples, set 9, dose response (AID 1159568). The format is functional, cell-based.

Genome polyprotein, sequence (P29990 2492-3391 limits assumed): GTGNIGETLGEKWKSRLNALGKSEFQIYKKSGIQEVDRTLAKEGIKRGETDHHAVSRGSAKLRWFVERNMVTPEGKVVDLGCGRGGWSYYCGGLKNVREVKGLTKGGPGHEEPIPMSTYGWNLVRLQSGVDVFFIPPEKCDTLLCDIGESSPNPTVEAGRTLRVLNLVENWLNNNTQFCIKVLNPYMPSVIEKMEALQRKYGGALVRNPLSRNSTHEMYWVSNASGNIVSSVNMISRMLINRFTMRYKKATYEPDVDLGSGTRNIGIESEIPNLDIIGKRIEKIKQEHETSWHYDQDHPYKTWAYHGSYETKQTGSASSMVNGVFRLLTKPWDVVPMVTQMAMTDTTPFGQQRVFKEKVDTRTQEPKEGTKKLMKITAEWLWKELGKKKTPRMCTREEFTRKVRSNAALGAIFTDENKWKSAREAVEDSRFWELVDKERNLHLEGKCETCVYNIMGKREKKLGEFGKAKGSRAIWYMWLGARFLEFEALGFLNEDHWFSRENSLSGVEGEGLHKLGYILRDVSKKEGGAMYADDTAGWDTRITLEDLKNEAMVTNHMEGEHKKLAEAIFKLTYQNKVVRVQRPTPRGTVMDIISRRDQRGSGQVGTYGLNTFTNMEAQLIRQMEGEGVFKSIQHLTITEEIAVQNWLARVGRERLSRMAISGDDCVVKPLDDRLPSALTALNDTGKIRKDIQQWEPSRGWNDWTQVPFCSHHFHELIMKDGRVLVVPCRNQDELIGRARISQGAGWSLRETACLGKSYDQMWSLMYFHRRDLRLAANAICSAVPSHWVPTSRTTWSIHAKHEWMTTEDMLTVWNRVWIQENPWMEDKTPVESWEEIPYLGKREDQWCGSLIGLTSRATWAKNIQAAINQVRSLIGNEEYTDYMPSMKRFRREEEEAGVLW
Endoplasmic reticulum aminopeptidase 1, sequence (Q9NZ08 whole entry): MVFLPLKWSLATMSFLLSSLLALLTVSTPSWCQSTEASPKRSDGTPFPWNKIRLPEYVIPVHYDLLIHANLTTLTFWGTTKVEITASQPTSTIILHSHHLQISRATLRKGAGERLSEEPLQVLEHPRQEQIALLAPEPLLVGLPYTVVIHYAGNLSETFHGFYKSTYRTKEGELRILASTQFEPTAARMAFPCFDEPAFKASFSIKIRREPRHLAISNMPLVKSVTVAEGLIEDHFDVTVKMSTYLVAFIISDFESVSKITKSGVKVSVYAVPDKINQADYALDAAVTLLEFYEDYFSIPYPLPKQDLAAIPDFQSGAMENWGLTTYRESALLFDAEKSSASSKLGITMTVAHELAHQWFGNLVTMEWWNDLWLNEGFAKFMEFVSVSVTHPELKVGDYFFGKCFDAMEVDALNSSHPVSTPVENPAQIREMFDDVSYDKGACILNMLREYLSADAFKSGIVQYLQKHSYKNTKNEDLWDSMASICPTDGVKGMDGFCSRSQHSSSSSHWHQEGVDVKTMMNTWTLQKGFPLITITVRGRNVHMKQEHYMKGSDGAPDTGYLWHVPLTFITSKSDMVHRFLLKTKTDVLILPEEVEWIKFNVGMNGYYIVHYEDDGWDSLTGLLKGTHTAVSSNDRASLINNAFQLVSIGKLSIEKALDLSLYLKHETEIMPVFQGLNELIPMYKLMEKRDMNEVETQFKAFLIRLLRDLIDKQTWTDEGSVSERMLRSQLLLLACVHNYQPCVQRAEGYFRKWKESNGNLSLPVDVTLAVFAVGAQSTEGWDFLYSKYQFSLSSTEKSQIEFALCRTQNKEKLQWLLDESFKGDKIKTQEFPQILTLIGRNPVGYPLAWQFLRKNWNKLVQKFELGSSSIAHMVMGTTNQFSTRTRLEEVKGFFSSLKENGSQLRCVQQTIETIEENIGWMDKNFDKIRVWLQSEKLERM

With `O=S(=O)(Nc1ccc(O)c2ccccc12)c1cccs1`, the IC50 was 9.75 µM (active) in assay [1], 62.6 µM (active) in assay [2] and > 128 µM (inactive) in assay [3].
For orientation: AC50 means the midpoint of the concentration-response curve, whichever way the signal moves. For `Cc1ccc2c(c1)N(C(=O)CCC(=O)NCCCN1CCOCC1)CC(C)O2` (stereo not drawn), the AC50 in assay [4] was > 52 µM (inactive).
Broadly, the CC50 is the concentration giving 50% cytotoxicity. Take `CN(C)CCCN1c2ccccc2Sc2ccc3ccccc3c21`: the cytotoxic concentration (CC50) in [5] is 16.2 µM (active). For the same compound, in assay [6], the half-maximal activity concentration (AC50) was 36 µM (active).
`Cc1ccc(C(C)C)c(OCCNC(=O)c2ccccc2O)c1`: the results for the concentration at half-maximal activity (AC50) in [7] and in assay [8] were 1.45 µM (active) and 2.13 µM (active), respectively.
Consider `CCOC(=O)C[n+]1ccc2c([nH]c3ccccc32)c1C`, for which the AC50 was > 100 µM (inactive) in assay [9] and 11.4 µM (active) in [10].
`O=C(Nc1ncccc1O)c1ccc(Oc2ccccc2)cc1`: in assay [11], the AC50 is 26 µM (active).
Regarding `Cc1cc2cc(CNC(=O)c3ccc(S(=O)(=O)N(C)C)cc3)ccc2n1C`, the figures for the IC50 in [12], in assay [13] and in assay [15] were > 66 µM (inactive), > 66 µM (inactive) and > 100 µM (inactive), respectively. The EC50 in assay [14] was > 20 µM (inactive).
In the case of `CC(C)(C)[S@+]([O-])N1Cc2cc(C(=O)NCC(F)(F)F)nc(-c3cccc(-c4cccc(F)c4)c3)c2[C@@H]1CCO`, the AbsAC35 in assay [16] is 111.16 µM; in assay [17], 124.56 µM. Moreover, the concentration at half-maximal activity (AC50) in [18] was 6.29 µM (active).
